Measured values as given in article PMC9863607, “Combined Use of Antimicrobial Peptides with Antiseptics against Multidrug-Resistant Bacteria: Pros and Cons” (Pharmaceutics, 2023).
≈ marks a conversion by molar mass, not a printed value. Like-named read-outs stand apart in the source and are kept apart here. Peptide text beside a SMILES is read from it.

Key:
[1] = tested on: A. baumannii 7226/16; assay: Crystal violet assay of biofilm formation; format: cell-based, Acinetobacter baumannii; details: median of 3 independent experiments; for MECBF partially inhibiting bacterial biofilms: minimal concentration with significant decrease vs intact control (Mann–Whitney, p < 0.05), 24 h, 37 °C, MHB; for Minimal FECI, AMP + CAPB, biofilm formation: combination with cocamidopropyl betaine; for Minimal FECI, AMP + DXD, biofilm formation: combination with dioxydin; for Minimal FECI, AMP + ETA, biofilm formation: combination with etidronic acid; for Minimal FECI, AMP + PTS, biofilm formation: combination with prontosan
Experimental: The impact of the tested antimicrobials and their combinations on the formation of biofilms was quantitated as per the crystal violet assay protocol published by Merritt et al.. Testing was performed in 96-well immunological plates with U-shaped bottoms. Overnight cultures of tested bacteria in MHB were diluted by a factor of 50, mixed 1:1 with 50 μL of active compounds or combinations in the same growth medium adjusted to double the desired final concentration, and left to form biofilms for 24 h at 37 °C. Experimental samples were quadruplicated, and control without antimicrobials was octuplicated.
Then, the liquid content of the test plates was discarded, and the plates were gently washed in still water from residual traces of unattached planktonic bacteria. Each well was supplied with 125 μL 0.1% aqueous solution of crystal violet dye for 10 min at room temperature to stain biofilm components left attached to the surface. After staining, the plates were washed with clear water once more to remove excessive dye and left to air-dry. To quantify the amount of the bound dye corresponding to the thickness of the formed biofilm, it was redissolved in 30% acetic acid, 200 μL of which was introduced into each well. After 15 min at room temperature, the content of the wells was mixed by repetitive pipetting to ensure complete dye extraction, and 125 μL of each sample was transferred well-by-well into 96-well clear flat-bottom plates for spectrophotometric examination. OD was measured at 580 nm. Final results were calculated as medians based on three independent experiments.
The minimal concentrations of AMPs and antiseptics causing a statistically significant inhibitory effect on biofilm formation (i.e., a statistically significant decrease compared with the control biofilm formed by the intact bacteria; Mann–Whitney U-test, p < 0.05) are shown in Table 3 and are later referenced as MECBF (for minimal effective concentration regarding biofilm formation). The exact value of such a minimal effect is admittedly small, within the range of a 10–20% decrease in the density of the emerging biofilm. Thus, the practical usefulness of such an effect, even if strengthened in combinations, is quite questionable; however, from the academic point of view, even slight changes can provide us with information on the mode of interaction between AMPs and antiseptics and allow us to make certain assumptions about the nature of such interactions.
Analyzing the combined action of AMPs and antiseptics (AS) in sub-microbicidal concentrations toward biofilms, we adopted the same approach based on the calculation of fractional indices as the one we used while testing antimicrobial activity on planktonic bacteria. For combinations, the series of concentrations from [MECBF(AMP) + MECBF(AS)], [½MECBF(AMP) + ½MECBF(AS)] and down to [1/32 × MECBF(AMP) + 1/32 × MECBF(AS)] was analyzed. […] The fractional indices, denoted here as fractional effective concentration indices (FECIs), were calculated as follows: FECI = [AMP]/MECBF(AMP) + [AS]/MECBF(AS), where [AMP] and [AS] are the concentration of AMP and antiseptic in a combination that has a statistically significant inhibitory effect on the formation of biofilms if compared with the intact control (Mann–Whitney U-test, p < 0.05). The minimal FECI > 4 was interpreted as antagonism, FECI ≤ 0.5 as synergy, 0.5 < FECI ≤ 1 as additivity, and 1 < FECI ≤ 4 as independent action.

[2] = tested on: S. aureus 1399/17; assay: microbe, parasite or virus in culture; format: cell-based, Staphylococcus aureus
Experimental: (§1) In this regard the test plates were preincubated for 1 h at 37 °C with 0.1% bovine serum albumin (BSA) in distilled water before use. Bacteria were grown overnight at 37 °C with shaking in 2.1% Müller–Hinton broth (MHB), and then a small aliquot was transferred into the fresh portion of the same medium for another 2–3 h on the day of the experiment to provide us with the log phase bacterial suspension. Concentration of bacterial cells in suspension was evaluated based on absorbance at 620 nm and diluted down to 1 × 10^6 CFU/mL with MHB. Equal volumes of the prepared bacterial suspension in MHB and two-fold serial dilutions of the antimicrobials in 10 mM sodium phosphate (Na-P) buffer (pH 7.4) with 0.1% BSA were mixed and incubated overnight at 37 °C. The lowest concentration where no bacterial growth was observed the next day under visual examination was considered the minimal inhibitory concentration. The test was repeated at least three times, and the final MIC value was established as a median result. Each experiment was conducted in triplicates. Terasaki microplates (10 µL end volume, V-shaped bottom; Sarstedt, Nümbrecht, Germany) were used.

[3] = tested on: E. coli ML-35p; assay: Broth microdilution assay (MIC, planktonic bacteria); format: cell-based, Escherichia coli; details: antiseptics and surfactants, MHB, overnight 37 °C, median of 3–4 independent experiments, prontosan as polyhexanide
Experimental: as §1

[4] = tested on: E. coli ML-35p; assay: Fluorometric resazurin assay of bacterial metabolic activity; format: cell-based, Escherichia coli; details: ¼ MIC AMP + ¼ MIC poviargolum; became comparable to ½ MIC of the peptide
Experimental: The decline in metabolic activity of bacterial cells faced against test substances or their combinations was tracked using resazurin dye, also known as alamarBlue. […] Thus, resazurin-to-resorufin conversion was primarily associated with energy metabolism impairment.
The experimental procedure was basically the same as for permeability testing except for the substitution of the markers by 120 μM resazurin and the addition of 0.1% MHB to provide bacteria with a metabolic substrate. An additional control without both antimicrobials and bacterial cells was included to imitate the zero metabolic activity level. Though resazurin-to-resorufin transformation can be observed via either spectrometry or fluorimetry, the latter was preferred as a more sensitive method. Experiments were conducted in 96-well white opaque plates. Temperature and shaking parameters were left unchanged. Fluorescence intensity was measured at 590 nm with excitation at 560 nm. Data were collected every 3 min for 4–6 h using a Gemini EM plate spectrofluorimeter (Molecular Devices, San Jose, CA, USA).

[5] = antiseptics and surfactants, MHB, overnight 37 °C, median of 3–4 independent experiments, prontosan as polyhexanide
[6] = sub-microbicidal concentrations

Row | Compound | MECBF partially inhibiting bacterial biofilms [1] | MIC [2, 5] | MIC ([2]; Staphylococcus aureus, 1399/17, antiseptics and surfactants, MHB, overnight 37 °C, median of 3–4 independent experiments, prontosan as polyhexanide, read-out: MIC) [µg/mL] | MIC ([3]; Escherichia coli, ML35P, read-out: MIC) [mg/mL] | MIC [3] | Minimal FECI, AMP + CAPB, biofilm formation [1, 6] | Minimal FECI, AMP + DXD, biofilm formation [1, 6] | Minimal FECI, AMP + ETA, biofilm formation [1, 6] | Minimal FECI, AMP + PVG, biofilm formation ([1]; combination with poviargolum, sub-microbicidal concentrations) | Minimal FECI, AMP + PTS, biofilm formation [1, 6] | MIC ([2]; 1399/17, 1 h) [µM] | Effect of poviargolum on development of the AMP's suppression of bacterial metabolic activity [4]
1 | [O-][n+]1c(CO)c(CO)[n+]([O-])c2ccccc21 [Dioxydin] | 1/16 | 500 µg/mL | – | – | – | – | – | – | – | – | – | –
2 | CC(O)(P(=O)(O)O)P(=O)(O)O [Etidronic acid] | 1/128 | – | 50000 | 50 (≈ 243 mM) | – | – | – | – | – | – | – | –
3 | Cocamidopropyl betaine | 1/32 | >50,000 µg/mL | – | – | >50,000 µg/mL | – | – | – | – | – | – | –
4 | CC[C@H](C)[C@H](NC(=O)[C@H](CCCNC(=N)N)NC(=O)[C@@H](NC(=O)[C@@H]1CCCN1C(=O)[C@@H]1CCCN1C(=O)[C@H](CCCNC(=N)N)NC(=O)[C@H](CCCNC(=N)N)NC(=O)[C@H](Cc1ccccc1)NC(=O)[C@@H]1CCCN1C(=O)[C@H](CC(C)C)NC(=O)[C@H](CCCNC(=N)N)NC(=O)[C@H](Cc1ccccc1)NC(=O)[C@@H](N)CCCNC(=N)N)[C@@H](C)CC)C(=O)N[C@@H](Cc1c[nH]cn1)C(=O)N1CCC[C@H]1C(=O)N1CCC[C@H]1C(=O)N1CCC[C@H]1C(=O)N[C@@H](Cc1ccccc1)C(=O)N[C@@H](Cc1ccc(O)cc1)C(=O)N1CCC[C@H]1C(=O)N1CCC[C@H]1C(=O)N[C@@H](Cc1ccccc1)C(=O)N[C@@H](CCCNC(=N)N)C(=O)N[C@@H](CCCNC(=N)N)C(=O)N[C@@H](Cc1ccccc1)C(=O)N[C@@H](CC(C)C)C(=O)O [ChBac3.4] (H-RFRLPFRRPPIRIHPPPFYPPFRRFL-OH; N-terminus assumed) | 1/16 | – | – | – | – | 0.5 | 1 | 1.12 | 1 | 0.5 | 3.1 | significantly accelerated
5 | CC(C)C[C@H](NC(=O)[C@H](CCCNC(=N)N)NC(=O)CNC(=O)CNC(=O)[C@@H](N)CCCNC(=N)N)C(=O)N[C@H]1CSSC[C@@H](C(=O)N[C@H](C(=O)NCC(=O)N[C@@H](CCCNC(=N)N)C(N)=O)C(C)C)NC(=O)[C@H](C(C)C)NC(=O)[C@@H]2CSSC[C@H](NC(=O)[C@H](Cc3ccc(O)cc3)NC1=O)C(=O)N[C@@H](CCCNC(=N)N)C(=O)N[C@@H](CCCNC(=N)N)C(=O)N[C@@H](CCCNC(=N)N)C(=O)N[C@@H](Cc1ccccc1)C(=O)N2 [PG-1, protegrin 1] | 1/32 | – | – | – | – | 0.5 | 1.12 | 1.12 | – | 0.25 | 0.4 | significantly accelerated
